Like-named read-outs stand apart in the source and are kept apart here.
Test system: rats with cyclophosphamide-induced cystitis
Assay: cystometry in rats with cyclophosphamide-induced cystitis
Assay type: in vivo, male Wistar rats
Settings: for inhibition at 0.01 mg/kg / inhibition at 0.1 mg/kg: Rattus norvegicus, iv; for inhibition at 0.01 mg/kg: group 4, cilansetron 0.01 mg/kg i.v.; for inhibition at 0.1 mg/kg: group 5, cilansetron 0.1 mg/kg i.v.
Method: In this test model, the effect of 5-HT3 receptor antagonists on rats with cyclophosphamide-induced cystitis was investigated.
Inflammation of the bladder responsible for bladder overactivity was induced by an intraperitoneal (i.p.) cyclophosphamide injection (150 mg/kg, i.p.) 48 hours before testing (Maggi et al., J Auton Nerv Syst 38 (1992) 201) using male Wistar rats weighing 300-350 g. The rats were anesthetized with urethane delivered subcutaneously in saline (1.2 g/kg), and their temperature was maintained at 37° C. Following a midline abdominal incision, a catheter was inserted through the bladder dome and sealed with a tie. The catheter was connected via a T-tube to a pressure transducer and a syringe pump, to allow filling of the bladder with warm (37° C.) saline at 50 μl/min simultaneously with recording of intravesical pressure. This catheter was later used for cystometry.
For each voiding and non-voiding contraction, the threshold pressure (ThP, corresponding to the bladder pressure at the onset of the voiding contraction (mm Hg)), the maximal voiding pressure (MP, defined by the maximal bladder pressure reached during voiding contraction (mm Hg)) the basal pressure (BaP, defined by the lowest bladder pressure reached after the voiding contraction (mm Hg)) and the area under the curve of the bladder pressure (AUP) during voiding (mm Hg×s) was calculated for each rat and averaged for each condition. In addition, the frequency of contractions was determined.
Test groups consisting of 10 rats each were used. Drug treatments were carried out as described in the following Table 1.
In groups 2 through 5, cystitis was induced by administration of cyclophosphamide 150 mg/kg intraperitoneally (i.p.) 48 hours before the experiment. Group 1 served as a control group. Drugs or vehicle to be tested were injected 10 minutes before the beginning of cystometry. Besides […] doses of cilansetron (groups 4-5), HOE140 (D-Arginyl-[Hyp3, Thi5, D-Tic7, Oic8]-bradykinin), a bradykinin 2 receptor antagonist, was used as a reference standard known to be active in this model. During the cystometry the pressure changes due to transvesical perfusion of warm saline at 50 μl/min were recorded over 60 minutes. Parameters (as outlined above) were analyzed for each bladder filling.

[1] = HOE140 130 μg/kg i.v., effect of treatment in cystitis rats
[2] = group 3, cyclophosphamide cystitis + HOE140 130 μg/kg i.v.
[3] = read-out: % inhibition of cystitis effects, basal pressure
[4] = read-out: % inhibition of cystitis effects, frequency
[5] = read-out: % inhibition of cystitis effects, threshold pressure
[6] = group 4, cyclophosphamide cystitis + cilansetron 0.01 mg/kg i.v.
[7] = group 5, cyclophosphamide cystitis + cilansetron 0.1 mg/kg i.v.

In the case of “D-Arginyl-[Hyp3, Thi5, D-Tic7, Oic8]-bradykinin [HOE140]”, the “area under the curve of the bladder contractions” value [1] is reported as “not affected”, the first micturition volume [1] is reported as “not affected” and the micturition pressure [1] is reported as “not affected”. The “symptoms of bladder overactivity associated with cyclophosphamide pretreatment” value (acute treatment, HOE140 130 μg/kg) was “reduced the symptoms of bladder overactivity”, the “% inhibition of cystitis effects, basal pressure” value (group 3, HOE140 130 μg/kg i.v.) was 50% and the “% inhibition of cystitis effects, frequency” value (group 3, HOE140 130 μg/kg i.v.) was 25%. The “% inhibition of cystitis effects, threshold pressure” value (group 3, HOE140 130 μg/kg i.v.) was 60%, the “frequency of bladder contractions” value [2] was 30 h⁻¹ and the threshold pressure [2] was 17 mmHg. The basal pressure (group 3, cyclophosphamide cystitis + HOE140 130 μg/kg i.v., 10 minutes before cystometry) was 16 mmHg.
For `Cc1nccn1C[C@H]1CCc2c(c3cccc4c3n2CCC4)C1=O` [cilansetron, (R)-(−)-4,5,6,8,9,10-hexahydro-10-[(2-methyl-1H-imidazol-1-yl)methyl]-11H-pyrido-[3,2,1-jk]-carbazol-11-one], the inhibition at 0.01 mg/kg [3] was 50%, the inhibition at 0.01 mg/kg [4] was 45% and the inhibition at 0.01 mg/kg [5] was 60%. It also gave an inhibition at 0.1 mg/kg [3] of 83%, an inhibition at 0.1 mg/kg [4] of 35% and an inhibition at 0.1 mg/kg [5] of 100%. For the same molecule, the “effectiveness compared with reference compound HOE 140” value (cilansetron 0.01 mg/kg i.v.) was “similarly effective to, or even more effective than”, the “symptoms of bladder overactivity associated with cyclophosphamide pretreatment” value (cilansetron 0.01 and 0.1 mg/kg, compared with HOE140) was “reduced these symptoms to an equivalent or slightly greater extent” and the “beneficial effect compared with HOE140” value (cystometry in rats with cyclophosphamide-induced cystitis, overall conclusion) was “superior”. For the same molecule, the basal pressure [6] was 16 mmHg, the “frequency of bladder contractions” value [6] was 26 h⁻¹ and the threshold pressure [6] was 17 mmHg. For the same molecule, the basal pressure [7] was 14 mmHg, the “frequency of bladder contractions” value [7] was 28 h⁻¹ and the threshold pressure [7] was 15 mmHg.
